The data set is described as follows: gradient 5% acetonitrile 3 min, to 50% in 2 min, to 85% in 15 min, held 3 min, 100 µL/min. Particulars: column: Zorbax Extend-C18 2.1 x 50 mm; eluents: water / acetonitrile, 0.1% formic acid. The method in brief: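 Using water and acetonitrile that each contained 0.1% formic acid, mixtures of ~100 pure standards were separated at 100 μL/min on a Zorbax Extend-C18 column (2.1 × 50 mm, 1.8 μm). The HPLC fed a quadrupole time-of-flight mass spectrometer working in positive and negative ionization mode, with dead and dwell volumes of 40 μL and 900 μL. Data were acquired over 3 months. Retention time was read from computationally picked adduct peaks after manual inspection of each.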
On to `CCOC(=O)N1CCN(c2ncc(S(=O)(=O)c3ccccc3)c(N)n2)CC1`, for which the RP-LC retention time was 821 s.

`CC(=O)N1CCc2ccccc2C1C(=O)NCc1cccs1` (centres undefined) yielded an RP-LC retention time of 720 s. Next, `CCCNC(=O)N(C1CCOCC1)C1CCN(C(=O)c2ccc3ccccc3n2)CC1`: 707 s; `CCOc1ccc(NC(=O)N2CCc3[nH]cnc3C2c2ccncc2)cc1` (centres undefined): 561 s. Consider `Cn1c(=O)sc2cc(S(=O)(=O)N3CCC(C(=O)NCc4ccc5c(c4)OCO5)CC3)ccc21`, for which the RP-LC retention time was 784 s.

`CC(CNC(=O)c1nc(Cn2c(=O)oc3ccccc32)no1)c1ccccc1` (centres undefined): the RP-LC retention time turned out to be 932 s. Next, `Cc1ccc(NC(=O)N2CCN(Cc3nc4cc(C)ccc4o3)CC2)cc1`: 725 s; `O=C(NCc1ccc2c(c1)OCO2)C1CCCN(c2ccc(N3CCOCC3)nn2)C1` (centres undefined): 609 s. As to `O=C(CN1CCc2[nH]c3c(F)c(Cl)ccc3c(=O)c2C1)Nc1ccc2c(c1)OCCO2`, the RP-LC retention time was 643 s. Next, `COc1ccc(C(C)NS(=O)(=O)c2cc(-c3nc(C(C)(C)C)cs3)cs2)cc1` (centres undefined): 1240 s; `CN(CC1CCOCC1)C(=O)Cc1ccc(F)cc1`: 687 s. Next, `CC(C)N1C(=O)c2cccnc2Sc2cc(NC(=O)Cc3ccccc3F)ccc21`: 858 s; `CCC(C)N(CC(=O)N1CCc2sccc2C1COc1ccccc1OC)C(=O)COC` (centres undefined): 845 s; `COc1ccc(CC2C(=O)Nc3ccc(Br)cc32)cc1` (centres undefined): 882 s. Turning to `CC(C)n1nc(CNC(=O)c2ccccn2)c2ccccc21`, the RP-LC retention time worked out at 874 s. `CC(C)(C)c1nnc2n(c1=O)N=C(c1ccc(F)cc1)CS2`: the RP-LC retention time was determined as 857 s. As to `COCCNc1cc(-n2ccnc2C)n2nccc2n1`, the RP-LC retention time amounted to 554 s. For the compound `Cn1c(CN2CCN(C(=O)c3ccco3)CC2)nc2cc(NC(=O)c3ccco3)ccc21`, the RP-LC retention time worked out at 607 s. As to `O=C(NCc1ccc(F)cc1F)C1CCCN(c2nc3ccsc3c(=O)n2-c2ccc(F)cc2)C1` (centres undefined), the RP-LC retention time was 885 s. Compound `COc1ccccc1CNC(=O)CSc1ccc(-c2cccnc2)nn1` came in with an RP-LC retention time of 592 s.

Regarding `CCc1noc([C@@H]2CC(F)(F)CN2C(=O)c2nccn2C)n1`, the RP-LC retention time came to 744 s. Compound `COCCNc1c(-c2ccc(F)cc2)nc2sc(C(=O)NCc3ccccn3)c(C)n12` came in with an RP-LC retention time of 661 s. Next, `CCN(CC)CCNC(=O)C1CCN(c2nc3ccccc3n3cccc23)CC1`: 579 s; `OC[C@@H]1CN(Cc2ccco2)C[C@H]1c1nc(-c2ccncc2)no1`: 547 s.

Compound `Cc1ccc(C)c(N2CCN(c3ccnc(SCC(=O)Nc4ccc(F)cc4F)n3)CC2)c1` returned an RP-LC retention time of 1000 s. Next, `O=C(c1ccc2c(c1)CCCC2)N1CCN(c2ccccc2)CC1`: 1050 s; `CN(C)c1cc(C(=O)NC2CC2)c2cc(F)ccc2n1`: 722 s. As to `Cc1nn(-c2ccc(Cl)cc2)c(C)c1S(=O)(=O)N1CCC(C(=O)N2CCCC2)CC1`, the RP-LC retention time worked out at 868 s.

The compound `Cc1cc(C(=O)N2c3ccccc3CC2c2nnc(C3CC3)o2)nn1C` (centres undefined) returned an RP-LC retention time of 786 s. Next, `CCCCN(C)C(=O)C1CCN(c2cc(Oc3ccc(CC)cc3)ncn2)CC1`: 1060 s; `Cc1c(C(=O)Nc2ccc(N3CCC(N4CCOCC4)CC3)c(C#N)c2)cnn1-c1ccc(Cl)cc1`: 800 s; `COc1ccc(C2c3c(n(C)c4ccccc34)C(=O)N2CC(=O)NCc2ccco2)cc1` (centres undefined): 924 s. `CC1CN2C=NC(N3CCN(C(=O)c4ccccc4)CC3)=CC2=N1` (centres undefined) yielded an RP-LC retention time of 580 s. In turn, `CC(C)Cc1cc(-c2nn3c(Cc4ccccc4)nnc3s2)n[nH]1` returned an RP-LC retention time of 910 s. Next, `COc1ccc(OC)c(CN2C[C@@H]3C(=O)N(C)C(=O)[C@@H]3C2)c1`: 574 s; `Cc1ccc(C)c(NS(=O)(=O)c2cc(-c3[nH]ncc3C(=O)N(C)C)oc2C)c1`: 700 s. Next, `CCc1ccc(C(=O)NC2CCN(c3cc(-c4cccs4)[nH]n3)C2)cc1` (centres undefined): 730 s; `O=C1NCCCCCN(C(=O)Nc2ccccc2)[C@H]2CCCC[C@@H]12`: 577 s; `O=C1CCC2(O)[C@@H]3Cc4ccc(O)c5c4[C@]2(CCN3Cc2ccoc2)C1O5` (some centres undefined): 609 s.

Regarding `O=C(Cn1cnc2nc3c(cc2c1=O)CCCC3)Nc1ccccc1Br`, the RP-LC retention time amounted to 732 s.

For the compound `O=C1CCCc2cc(S(=O)(=O)N3CCCC3C(=O)NC3CCCCCC3)ccc2N1` (centres undefined), the RP-LC retention time came out at 782 s. Next, `CC1=C(c2ccccc2)S(=O)(=O)N=C1N1CCCN(C(=O)CC(C)(C)C)CC1`: 854 s. Next, `O=C(c1ccccc1Br)N1CCN(Cc2nc(-c3ccccc3)cs2)CC1`: 773 s. Next, `CCc1ccc(OCC(O)Cn2c(C3CC3)nc3ccccc32)cc1` (centres undefined): 739 s.

As to `c1cn(-c2cc(N3CCCC3)ncn2)cn1`, the RP-LC retention time was 556 s. `O=C(NC1CC1)c1nc2ccccn2c1-c1ccc(Cl)cc1` gave an RP-LC retention time of 802 s.

The compound `COc1ccc(-c2cc(C(=O)NCC(c3cccs3)N(C)C)no2)cc1` (centres undefined) registered an RP-LC retention time of 675 s. With `CC(C)(C)c1ccc(O)c(CN(Cc2cc(C(C)(C)C)ccc2O)C2CCCCC2)c1`, the RP-LC retention time was determined as 1020 s.

For `Cc1nc2ccn(Cc3cccs3)c(=O)c2cc1C(=O)NC1CCCC1`, the RP-LC retention time was 736 s. Next, `Cn1cc(C(=O)NCc2ccc(F)cc2)c(S(=O)(=O)N2CCSCC2)n1`: 845 s; `CNC(=O)c1noc([C@@H]2CC(F)(F)CN2C(=O)C2CC=CC2)n1`: 698 s. Next, `CN(C)C(=O)c1ccc2c(c1)n(Cc1ccc(F)cc1)c(=O)c1ccnn12`: 780 s; `CCCN(C)CC1(O)CCC2(CCN(Cc3ccc(F)cc3)CC2)CC1`: 547 s; `CCc1ccc(-n2ncc3c(=O)n(Cc4nc(-c5ccc(F)c(Cl)c5)no4)cnc32)cc1`: 1250 s. Next, `CCn1cc(-c2nc(C)c(C(=O)N3CCCCCC3)s2)c2cccnc21`: 942 s; `CCN1CCOc2ccc(NC(=O)c3ccc4c(c3)OCO4)cc2C1=O`: 675 s. `CCCCOC(=O)Cn1c(=O)c2c(nc3n2CCCCN3c2ccc(OCC)cc2)n(C)c1=O` gave an RP-LC retention time of 1100 s. Next, `Cc1nn(Cc2ccc(C(=O)NC(C)C)cc2)c(C)c1S(=O)(=O)N1CCC(C)CC1`: 880 s.

On to `Cc1ccc(-c2cn3cc(C(=O)NC(C)c4cccnc4)ccc3n2)cc1` (centres undefined), for which the RP-LC retention time was found to be 571 s. Next, `COc1ccc(N2CCN(c3cc(SCC(=O)Nc4cc(Cl)ccc4C)ncn3)CC2)cc1`: 1130 s. `Cc1ccn(CC(=O)NC2CCN(c3ccc(=O)n(CC4CC4)n3)C2)n1` (centres undefined) registered an RP-LC retention time of 631 s. As to `COc1cccc(CNC(=O)C2CCCN(S(=O)(=O)c3cc(-c4noc(C)n4)cs3)C2)c1` (centres undefined), the RP-LC retention time stood at 874 s. Next, `O=C(NCc1ccccc1)C1CCCN(c2ncnc3c2nc2n3CCCCC2)C1` (centres undefined): 732 s. In turn, `COc1ccc(OC)c(NC(=O)CN2CCc3[nH]c4c(C)ccc(C)c4c(=O)c3C2)c1` displayed an RP-LC retention time of 693 s. Next, `CN1C(=O)c2cccn2CC1C(=O)N1CCN(c2ncccn2)CC1` (centres undefined): 609 s. On to `COC(=O)Nc1ccc(S(=O)(=O)N2CCCC(C(=O)O)C2)cc1` (centres undefined), for which the RP-LC retention time worked out at 640 s.

Consider `O=C([C@@H]1C[C@H](Oc2ccccc2)CN1C(=O)CC1CCCC1)N1CCCC1`, for which the RP-LC retention time came out at 832 s. `Cc1ccc(NC(=O)N2C[C@@H](F)C[C@H]2C(=O)N2CCCCC2)cc1F` displayed an RP-LC retention time of 755 s.

In turn, `Cc1sc(NC(=O)c2ccc(Cl)cc2)nc1-c1ccc2c(c1)NC(=O)CO2` returned an RP-LC retention time of 954 s. As for `C[C@H]1CN(C(=O)c2c(F)cccc2F)C[C@@H]1c1nc(-c2ccccc2)no1`, the RP-LC retention time worked out at 1020 s. Next, `CC1CCCN(c2nn(CC(=O)Nc3ccccc3F)c(=O)c3ccccc23)C1` (centres undefined): 1140 s.

As for `O=C(Cn1nc(-c2nc(-c3ccc(Cl)cc3)no2)ccc1=O)N1CCCC1`, the RP-LC retention time is 848 s. Next, `COc1ccc(OCc2nnc3sc(C4COc5ccccc5O4)nn23)cc1` (centres undefined): 913 s; `CCOC(=O)C1CCC(CNC(=O)Nc2cc3c(cc2N2CCCC2)n(C)c(=O)n3C)CC1` (centres undefined): 638 s. Next, `CCNC(=O)c1cn(-c2ccc(NC(=O)C3CC3)cn2)cn1`: 615 s; `COc1ccc(C2C(C(=O)NCCCN3CCOCC3)c3cc(OC)c(OC)cc3C(=O)N2C)cc1` (centres undefined): 612 s. The compound `CSc1ccc(CNC(=O)CC2CCN(C(=O)c3[nH]c(C)cc3C)CC2)cc1` yielded an RP-LC retention time of 792 s. Next, `COc1ccc(N2CCN(C(=O)c3ccc4c(c3)NC(=O)C3CCCCN43)CC2)cc1` (centres undefined): 756 s; `Cc1ccc(NC(=O)C2CCCN(c3nc4ccccc4nc3C(F)(F)F)C2)c(Cl)c1` (centres undefined): 1350 s.

The values above are taken from the METLIN SMRT retention time set (Domingo-Almenara et al. 2019).
